Results taken from US7531539B2, “Pyrrolotriazine kinase inhibitors” (Bristol-Myers Squibb Company, priority 2006, dated 2009).

How the values were obtained:
[1] = biological target: Casein Kinase 2 A1 kinase (Homo sapiens, UniProt P68400); assay: CK2A1 kinase assay (33P, TCA precipitation); format: biochemical
Method: (§1) Incubation mixtures employed for the Casein Kinase 2 A1 kinase assay contain Casecin Kinase 2 A1 kinase, a synthetic peptide substrate, ATP, ATP-γ-^33 P and a Hepes buffer containing Mg^2+, NaCl, DTT, and Brij-35. Reactions were incubated for 60 minutes at 30° C. and stopped by the addition of trichloroacetic acid (TCA) to a final concentration 8%. TCA precipitates were collected onto GF/C unifilter plates using a Filtermate universal harvester and the filters are quantitated using a TopCount 96/384-well liquid scintillation counter. Dose response curves were generated to determine the concentration required to inhibit 50% of kinase activity (IC50). Compounds were dissolved at 10 mM in dimethyl sulfoxide (DMSO) and evaluated at ten concentrations, each in duplicate. The final concentration of DMSO in the assay is 1.7%. IC50 values were derived by non-linear regression.

[2] = biological target: Casein Kinase 2 A2 kinase (Homo sapiens, UniProt P19784); assay: CK2A2 kinase assay (33P, TCA precipitation); format: biochemical
Method: as §1, with “A2” for “A1”, “Casein” for “Casecin”, “ATP-γ^33P” for “ATP-γ-^33 P”, “Mg^++,” for “Mg^2+,”, “(IC^50).” for “(IC50).”

Casein Kinase 2 A2 kinase, sequence (P19784 whole entry): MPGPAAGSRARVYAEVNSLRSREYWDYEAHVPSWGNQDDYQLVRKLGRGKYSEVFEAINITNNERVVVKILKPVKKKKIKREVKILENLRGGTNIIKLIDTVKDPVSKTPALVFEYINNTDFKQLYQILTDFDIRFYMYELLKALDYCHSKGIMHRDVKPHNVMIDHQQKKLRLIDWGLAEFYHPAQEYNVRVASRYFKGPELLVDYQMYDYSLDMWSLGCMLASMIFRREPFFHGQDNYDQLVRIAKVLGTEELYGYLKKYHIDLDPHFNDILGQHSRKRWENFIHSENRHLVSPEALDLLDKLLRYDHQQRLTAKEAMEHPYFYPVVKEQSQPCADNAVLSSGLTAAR
Casein Kinase 2 A1 kinase, sequence (P68400 whole entry): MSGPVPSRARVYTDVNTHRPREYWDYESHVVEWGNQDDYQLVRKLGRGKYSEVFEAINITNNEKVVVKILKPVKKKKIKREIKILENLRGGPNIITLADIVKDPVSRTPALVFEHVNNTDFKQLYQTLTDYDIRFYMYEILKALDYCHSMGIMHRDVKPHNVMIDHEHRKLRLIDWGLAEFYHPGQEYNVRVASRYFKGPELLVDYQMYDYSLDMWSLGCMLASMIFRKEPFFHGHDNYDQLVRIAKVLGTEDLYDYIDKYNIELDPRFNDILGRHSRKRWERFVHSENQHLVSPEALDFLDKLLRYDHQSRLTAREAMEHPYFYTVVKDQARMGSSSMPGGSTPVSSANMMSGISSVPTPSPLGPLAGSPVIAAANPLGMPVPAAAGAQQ

SMILES	IC50 [1] [nM]	IC50 [2] [nM]
CCc1cc(Nc2nc(N3CCC(c4ccccc4F)C3)nn3cccc23)[nH]n1 (centres unmarked) [Example 171, N-(3-Ethyl-1H-pyrazol-5-yl)-2-(3-(2-fluorophenyl)pyrrolidin-1-yl)pyrrolo[1,2-f][1,2,4]triazin-4-amine]	154	11
Cc1cc(Nc2nc(N3CCCC(c4ccccc4)C3)nn3cccc23)[nH]n1 (centres unmarked) [Example 204, N-(3-methyl-1H-pyrazol-5-yl)-2-(3-phenylpiperidin-1-yl)pyrrolo[1,2-f][1,2,4]triazin-4-amine]	1860	228
Cc1cc(Nc2nc(N3CCC(c4ccncc4)CC3)nn3cccc23)[nH]n1 [Example 203, N-(3-methyl-1H-pyrazol-5-yl)-2-(4-(pyridin-4-yl)piperidin-1-yl)pyrrolo[1,2-f][1,2,4]triazin-4-amine]	243	56
CC1C[C@@H]1c1cc(Nc2nc(N3CCC(c4cccnc4)C3)nn3cccc23)[nH]n1 (stereo partly drawn) [Example 182, N-(3-((1S,2S)-2-methylcyclopropyl)-1H-pyrazol-5-yl)-2-(3-(pyridin-3-yl)pyrrolidin-1-yl)pyrrolo[1,2-f][1,2,4]triazin-4-amine]	131	13
COc1ncccc1C1CCN(c2nc(Nc3cc(C)n[nH]3)c3cccn3n2)C1 (centres unmarked) [Example 213, 2-(3-(2-methoxypyridin-3-yl)pyrrolidin-1-yl)-N-(3-methyl-1H-pyrazol-5-yl)pyrrolo[1,2-f][1,2,4]triazin-4-amine]	349	43
Cc1cc(Nc2nc(N3CCC(CC(=O)O)C3)nn3cccc23)[nH]n1 (centres unmarked) [Example 199, 2-(1-(4-(3-methyl-1H-pyrazol-5-ylamino)pyrrolo[1,2-f][1,2,4]triazin-2-yl)pyrrolidin-3-yl)acetic acid]	2350	379
c1cncc(C2CCN(c3nc(Nc4cc(C5CC5)n[nH]4)c4cccn4n3)C2)c1 (centres unmarked) [Example 181, N-(3-cyclopropyl-1H-pyrazol-5-yl)-2-(3-(pyridin-3-yl)pyrrolidin-1-yl)pyrrolo[1,2-f][1,2,4]triazin-4-amine]	84	6
c1ccc(C2CCN(c3nc(Nc4cc(C5CC5)n[nH]4)c4cccn4n3)C2)cc1 (centres unmarked) [Example 184, N-(3-cyclopropyl-1H-pyrazol-5-yl)-2-(3-phenylpyrrolidin-1-yl)pyrrolo[1,2-f][1,2,4]triazin-4-amine]	177	14
COc1ccc(C2CCN(c3nc(Nc4cc(C)n[nH]4)c4cccn4n3)C2)cn1 (centres unmarked) [Example 212, (3-(6-Methoxypyridin-3-yl)pyrrolidin-1-yl)-N-(3-methyl-1H-pyrazol-5-yl)pyrrolo[1,2-f][1,2,4]triazin-4-amine]	1380	99
Cc1cc(Nc2nc(N3CCC(c4ccccc4)C3)nn3cccc23)[nH]n1 (centres unmarked) [Example 186, N-(5-methyl-1H-pyrazol-3-yl)-2-(3-phenylpyrrolidin-1-yl)pyrrolo[1,2-f][1,2,4]triazin-4-amine]	294	39
